From ChEMBL document CHEMBL3351790, “Inhibitory effects of p-alkylaminophenol on melanogenesis” (Bioorg Med Chem, 2014) come the findings set out here.

Data set [1] has as its system B16. The data set can be described thus: Inhibition of alpha-MSH-induced tyrosinase mRNA expression in mouse B16 cells at 0.1 to 1 uM after 3 days by RT-PCR analysis relative to control. It counts as functional, cell-based.
The test system of data set [2] is B16. As to the kind of experiment: Inhibition of alpha-MSH-induced TRP-1 mRNA expression in mouse B16 cells at 1 uM after 3 days by RT-PCR analysis relative to control. It counts as functional. The following applies: B16, 72 h.
Data set [3] concerns B16. The data set can be described thus: Inhibition of alpha-MSH-induced melanin production in mouse B16 cells at 1 uM after 3 days by spectrophotometry relative to control. The format is functional. The following applies: B16, 72 h.
A further data set deals with Liver microsome. The data set can be described thus: Inhibition of lipid peroxidation in rat liver microsomes. The format is functional. For orientation: Liver microsomes are vesicles of endoplasmic reticulum, rich in cytochrome P450 enzymes.
The subject of data set [4] is B16. The data set can be described thus: Inhibition of alpha-MSH-induced ERK phosphorylation in mouse B16 cells at 1 uM after 3 days by Western blotting relative to control. It counts as cell-based. (In western blotting, separated proteins are transferred to a membrane and probed.)
In data set [5] the test system is B16. As to the kind of experiment: Inhibition of alpha-MSH-induced TRP-2 mRNA expression in mouse B16 cells at 0.1 to 1 uM after 3 days by RT-PCR analysis relative to control. It counts as functional, cell-based.
Data set [6] relates to B16. As to the kind of experiment: Inhibition of alpha-MSH-induced ERK phosphorylation in mouse B16 cells at 0.1 uM after 3 days by Western blotting relative to control. It counts as cell-based.
Data set [7] relates to B16. The data set can be described thus: Inhibition of alpha-MSH-induced AKT phosphorylation in mouse B16 cells at 0.1 to 1 uM after 3 days by Western blotting relative to control. The format is cell-based.
For data set [8], the target named is T1, Tyrosinase (Mus musculus) (UniProt P11344).
T1 sequence (whole entry): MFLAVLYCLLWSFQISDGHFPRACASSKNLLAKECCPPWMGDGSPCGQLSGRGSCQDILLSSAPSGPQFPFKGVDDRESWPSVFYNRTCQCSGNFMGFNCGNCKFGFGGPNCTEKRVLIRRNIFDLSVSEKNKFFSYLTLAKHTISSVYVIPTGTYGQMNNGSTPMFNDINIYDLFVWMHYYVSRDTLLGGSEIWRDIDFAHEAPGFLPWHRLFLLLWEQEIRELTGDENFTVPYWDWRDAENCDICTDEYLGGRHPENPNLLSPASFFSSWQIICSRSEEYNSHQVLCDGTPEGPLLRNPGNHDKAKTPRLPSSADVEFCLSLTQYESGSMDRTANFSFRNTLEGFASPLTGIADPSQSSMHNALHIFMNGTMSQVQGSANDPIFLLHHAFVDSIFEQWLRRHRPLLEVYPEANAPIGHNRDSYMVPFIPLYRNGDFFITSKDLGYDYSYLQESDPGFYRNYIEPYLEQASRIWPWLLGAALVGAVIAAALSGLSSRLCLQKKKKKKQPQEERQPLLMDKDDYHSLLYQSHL
As to the kind of experiment: Inhibition of tyrosinase in mouse B16 cells using L-tyrosine as substrate preincubated at 50 uM for 20 mins by spectrophotometry relative to control. The format is cell-based.

Data set [9] deals with B16. As to the kind of experiment: Inhibition of alpha-MSH-induced TRP-2 protein expression in mouse B16 cells at 0.1 to 1 uM after 3 days by Western blotting relative to control. The format is functional, cell-based.
For data set [10], the system named is B16. The data set can be described thus: Inhibition of alpha-MSH-induced ERK phosphorylation in mouse B16 cells at 0.4 uM after 3 days by Western blotting relative to control. The format is cell-based.
Data set [11] concerns B16. The data set can be described thus: Cytotoxicity against mouse B16 cells at 1 uM after 72 hrs by MTT assay. It counts as cell-based. The following applies: b16, 72 h. On the technique in general: Formazan colour is commonly taken as a measure of viable cells.
Data set [12] concerns B16. The data set can be described thus: Inhibition of alpha-MSH-induced MITF mRNA expression in mouse B16 cells at 1 uM after 3 days by RT-PCR analysis relative to control. It counts as functional. The following applies: B16, 72 h.
Data set [13] concerns B16. As to the kind of experiment: Inhibition of alpha-MSH-induced MITF protein expression in mouse B16 cells after 3 days by Western blotting relative to control. The format is functional, cell-based.
In data set [14] the test system is B16. As to the kind of experiment: Inhibition of alpha-MSH-induced TRP-1 protein expression in mouse B16 cells after 3 days by Western blotting relative to control. It counts as functional, cell-based.
Data set [15] relates to B16. As to the kind of experiment: Inhibition of alpha-MSH-induced melanin production in mouse B16 cells at 0.1 to 0.4 uM after 3 days by spectrophotometry relative to control. The format is functional, cell-based.
In data set [16] the test system is B16. The data set can be described thus: Inhibition of alpha-MSH-induced tyrosinase protein expression in mouse B16 cells at 0.1 to 1 uM after 3 days by Western blotting relative to control. The format is functional, cell-based.

pIC50: −log10 of the molar value. The source made the active and inactive calls. The rule behind the calls is not given here.

In general, inhibition refers to the change of the read-out against control, counted positive when it falls. The pIC50 is −log10 of the IC50, conventionally taken in molar units. A higher pIC50 goes with a small IC50.

As to `CCCCCCCCCCNc1ccc(O)cc1`, the inhibition result in the data set on B16 [1], in the data set with B16 [5], in the data set on B16 [7], in the data set on B16 [9], in the data set with B16 [15] and with B16 [16] was “inactive” throughout. The figures for the inhibition at 1 µM in the data set with B16 [2], with B16 [3] and with B16 [12] were 50%, 34% and 68%, respectively. This compound gave a pIC50 in the data set on Liver microsome of 7.82. In addition, the inhibition in the data set with B16 [4] is 88%; in the data set on B16 [6] it was 22%; in [8], 7%; with B16 [10], 75%; in the data set on B16 [13], “Dose-dependent effect”; with B16 [14] it was “Dose-dependent effect”. Moreover, the Activity entry in the data set with B16 [11] is reported as “Non-toxic”.

Regarding `CC1=C(/C=C/C(C)=C/C=C/C(C)=C/C(=O)O)C(C)(C)CCC1` [TRETINOIN], the pIC50 in the data set on Liver microsome was 5.49.

Regarding `CCCCCCNc1ccc(O)cc1`, the pIC50 with Liver microsome was 7.48.

Compound `CCCCCCCCCCCCNc1ccc(O)cc1` showed a pIC50 with Liver microsome of 7.81.

For the compound `CCCCCCCCNc1ccc(O)cc1`, in the data set with Liver microsome, the pIC50 is 7.85. This pIC50 and that of the compound before are within 0.2 log units of each other.

As for `CC1=C(/C=C/C(C)=C/C=C/C(C)=C/C(=O)Nc2ccc(O)cc2)C(C)(C)CCC1` [FENRETINIDE], in the data set with Liver microsome, the negative logarithm of the IC50 (pIC50) is 5.30.
